Results taken from article PMC10385868 (Viruses, 2023).
In brackets after ≈: the same amount, converted by molar mass.

Target: T1, VEEV nsP2 protease (Venezuelan equine encephalitis virus, UniProt P27282)
T1 sequence (P27282 1003-1322 limits assumed): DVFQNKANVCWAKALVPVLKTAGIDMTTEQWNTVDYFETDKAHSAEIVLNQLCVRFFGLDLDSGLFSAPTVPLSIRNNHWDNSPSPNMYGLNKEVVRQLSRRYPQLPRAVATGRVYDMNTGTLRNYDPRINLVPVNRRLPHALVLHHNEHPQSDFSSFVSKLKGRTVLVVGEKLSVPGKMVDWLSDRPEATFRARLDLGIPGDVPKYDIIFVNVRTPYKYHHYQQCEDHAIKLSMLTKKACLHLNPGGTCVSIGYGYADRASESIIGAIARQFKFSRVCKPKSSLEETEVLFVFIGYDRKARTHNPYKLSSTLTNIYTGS
Experiment: biochemical
Conditions: read-out: VEEV nsP2 PROTEASE k2/Ki
`CC(C)CCNC(=O)[C@H](CC(C)C)NC(=O)[C@H]1O[C@@H]1C(=O)NCc1cccnc1` [NCGC00488907-01] gave a kinact/KI of 86 M⁻¹ s⁻¹. In the case of `CC(C)CCNC(=O)[C@H](CC(C)C)NC(=O)[C@H]1O[C@@H]1C(=O)NCc1ccncc1` [NCGC00488908-01], the kinact/KI is reported as 23 M⁻¹ s⁻¹.

Target: T1, VEEV nsP2 protease
Experiment: not given
Assay type: biochemical
Conditions: not given
In the case of `CC(C)CCNC(=O)C(CC(C)C)NC(=O)C1OC1C(=O)O` (stereo not shown) [E64c, reference compound], the “inhibition in discontinuous assays (SDS-PAGE gels)” value is reported as “partial inhibition”.

System: VEEV-Trinidad
Experiment: microbe, parasite or virus in culture
Assay type: cell-based
Conditions: Venezuelan equine encephalitis virus, A549
With `CC(C)CCNC(=O)C(CC(C)C)NC(=O)C1OC1C(=O)O` (stereo not shown) [E64c, reference compound] the EC50 was > 100 µM. `CC(C)CCNC(=O)[C@H](CC(C)C)NC(=O)[C@H]1O[C@@H]1C(=O)NCCCO` [NCGC00487434-01] gave an EC50 of 70 to 80 µM. `CC(C)CCNC(=O)[C@H](CC(C)C)NC(=O)[C@H]1O[C@@H]1C(=O)NCc1cccnc1` [NCGC00488907-01] gave an EC50 of 6 µM. Compound `CC(C)CCNC(=O)[C@H](CC(C)C)NC(=O)[C@H]1O[C@@H]1C(=O)NCc1ccncc1` [NCGC00488908-01] has an EC50 of 9.5 µM.

Same assay, conditions: Venezuelan equine encephalitis virus, A549, read-out: VEEV-Trinidad EC50
Compound `CC(C)CCNC(=O)[C@H](CC(C)C)NC(=O)[C@H]1O[C@@H]1C(=O)NCc1cccnc1` [NCGC00488907-01] has an EC50 of 5.97 µM. `CC(C)CCNC(=O)[C@H](CC(C)C)NC(=O)[C@H]1O[C@@H]1C(=O)NCc1ccncc1` [NCGC00488908-01] showed an EC50 of 9.45 µM.

System: VEEV-TC83
Experiment: microbe, parasite or virus in culture
Assay type: cell-based
Conditions: Venezuelan equine encephalitis virus, HeLa, read-out: VEEV-TC83 EC50
For `CC(C)CCNC(=O)[C@H](CC(C)C)NC(=O)[C@H]1O[C@@H]1C(=O)NCc1cccnc1` [NCGC00488907-01], the EC50 was 5.22 µM. `CC(C)CCNC(=O)[C@H](CC(C)C)NC(=O)[C@H]1O[C@@H]1C(=O)NCc1ccncc1` [NCGC00488908-01] gave an EC50 of 9.23 µM.

System: CHIKV
Experiment: microbe, parasite or virus in culture
Assay type: cell-based
Conditions: Chikungunya virus, U2OS, read-out: CHIKV EC50
`CC(C)CCNC(=O)[C@H](CC(C)C)NC(=O)[C@H]1O[C@@H]1C(=O)NCc1cccnc1` [NCGC00488907-01] gave an EC50 of 25.9 µM. `CC(C)CCNC(=O)[C@H](CC(C)C)NC(=O)[C@H]1O[C@@H]1C(=O)NCc1ccncc1` [NCGC00488908-01] showed an EC50 of 50 µM.

System: WEEV
Experiment: microbe, parasite or virus in culture
Assay type: cell-based
Conditions: Western equine encephalitis virus, HeLa, read-out: WEEV EC50
With `CC(C)CCNC(=O)[C@H](CC(C)C)NC(=O)[C@H]1O[C@@H]1C(=O)NCc1cccnc1` [NCGC00488907-01] the EC50 was 8.76 µM. For `CC(C)CCNC(=O)[C@H](CC(C)C)NC(=O)[C@H]1O[C@@H]1C(=O)NCc1ccncc1` [NCGC00488908-01], the EC50 was 14.6 µM.

System: EEEV
Experiment: microbe, parasite or virus in culture
Assay type: cell-based
Conditions: Eastern equine encephalitis virus, A549, read-out: EEEV EC50
With `CC(C)CCNC(=O)[C@H](CC(C)C)NC(=O)[C@H]1O[C@@H]1C(=O)NCc1cccnc1` [NCGC00488907-01] the EC50 was < 50 µM. With `CC(C)CCNC(=O)[C@H](CC(C)C)NC(=O)[C@H]1O[C@@H]1C(=O)NCc1ccncc1` [NCGC00488908-01] the EC50 was ≥ 100 µM.

System: VEEV-Trd
Experiment: microbe, parasite or virus in culture
Assay type: cell-based, Venezuelan equine encephalitis virus
Conditions: not given
In the case of `CC(C)CCNC(=O)C(CC(C)C)NC(=O)C1OC1C(=O)O` (stereo not shown) [E64c, reference compound], the “efficacy in cell-based assays” value is reported as “ineffective”.

System: not given
Experiment: not given
Conditions: rat, microsomes
With `CC(C)CCNC(=O)C(CC(C)C)NC(=O)C1OC1C(=O)O` (stereo not shown) [E64c, reference compound] the “Rat_SD/Microsomes t1/2” value was >30 m. In the case of `CC(C)CCNC(=O)[C@H](CC(C)C)NC(=O)[C@H]1O[C@@H]1C(=O)NCCCO` [NCGC00487434-01], the “Rat_SD/Microsomes t1/2” value is reported as >30 m. For `CC(C)CCNC(=O)[C@H](CC(C)C)NC(=O)[C@H]1O[C@@H]1C(=O)NCc1cccnc1` [NCGC00488907-01], the “Rat_SD/Microsomes t1/2” value was 6.4 m. In the case of `CC(C)CCNC(=O)[C@H](CC(C)C)NC(=O)[C@H]1O[C@@H]1C(=O)NCc1ccncc1` [NCGC00488908-01], the “Rat_SD/Microsomes t1/2” value is reported as >30 m.

System: not given
Experiment: not given
Conditions: not given
In the case of `CC(C)CCNC(=O)[C@H](CC(C)C)NC(=O)[C@H]1O[C@@H]1C(=O)NCc1cccnc1` [NCGC00488907-01], the PAMPA is reported as <4.3 ×10⁻⁶ cm/s. `CC(C)CCNC(=O)[C@H](CC(C)C)NC(=O)[C@H]1O[C@@H]1C(=O)NCc1ccncc1` [NCGC00488908-01] showed a PAMPA of 7.6 ×10⁻⁶ cm/s.

System: not listed separately
Experiment: in vitro
Conditions: human
For `CC(C)CCNC(=O)[C@H](CC(C)C)NC(=O)[C@H]1O[C@@H]1C(=O)NCc1cccnc1` [NCGC00488907-01], the CC50 was > 50 µM. In the case of `CC(C)CCNC(=O)[C@H](CC(C)C)NC(=O)[C@H]1O[C@@H]1C(=O)NCc1ccncc1` [NCGC00488908-01], the CC50 is reported as > 50 µM.

System: not listed separately
Experiment: in vitro
Conditions: African green monkey
With `CC(C)CCNC(=O)C(CC(C)C)NC(=O)C1OC1C(=O)O` (stereo not shown) [E64c, reference compound] the CC50 was > 100 µM. For `CC(C)CCNC(=O)[C@H](CC(C)C)NC(=O)[C@H]1O[C@@H]1C(=O)NCCCO` [NCGC00487434-01], the CC50 was > 100 µM. In the case of `CC(C)CCNC(=O)[C@H](CC(C)C)NC(=O)[C@H]1O[C@@H]1C(=O)NCc1cccnc1` [NCGC00488907-01], the CC50 is reported as > 100 µM. With `CC(C)CCNC(=O)[C@H](CC(C)C)NC(=O)[C@H]1O[C@@H]1C(=O)NCc1ccncc1` [NCGC00488908-01] the CC50 was > 100 µM.

Same assay, conditions: human
For `CC(C)CCNC(=O)[C@H](CC(C)C)NC(=O)[C@H]1O[C@@H]1C(=O)NCc1cccnc1` [NCGC00488907-01], the CC50 was > 50 µM. In the case of `CC(C)CCNC(=O)[C@H](CC(C)C)NC(=O)[C@H]1O[C@@H]1C(=O)NCc1ccncc1` [NCGC00488908-01], the CC50 is reported as > 50 µM.

System: not listed separately
Experiment: in vitro
Conditions: SD, rat, microsomes
Work on `CC(C)CCNC(=O)[C@H](CC(C)C)NC(=O)[C@H]1O[C@@H]1C(=O)NCc1cccnc1` [NCGC00488907-01] yielded a half-life of 6.4 min. For `CC(C)CCNC(=O)[C@H](CC(C)C)NC(=O)[C@H]1O[C@@H]1C(=O)NCc1ccncc1` [NCGC00488908-01], the half-life was > 30 min.

System: not listed separately
Experiment: in vitro
Conditions: PAMPA
In the case of `CC(C)CCNC(=O)C(CC(C)C)NC(=O)C1OC1C(=O)O` (stereo not shown) [E64c, reference compound], the Papp is reported as < 1 ×10⁻⁶ cm/s. In the case of `CC(C)CCNC(=O)[C@H](CC(C)C)NC(=O)[C@H]1O[C@@H]1C(=O)NCc1cccnc1` [NCGC00488907-01], the Papp is reported as < 4.3 ×10⁻⁶ cm/s. With `CC(C)CCNC(=O)[C@H](CC(C)C)NC(=O)[C@H]1O[C@@H]1C(=O)NCc1ccncc1` [NCGC00488908-01] the Papp was 7.6 ×10⁻⁶ cm/s.

System: not listed separately
Experiment: physchem
Conditions: not given
In the case of `CC(C)CCNC(=O)C(CC(C)C)NC(=O)C1OC1C(=O)O` (stereo not shown) [E64c, reference compound], the solubility is reported as 33 µg/mL (≈ 105 µM). For `CC(C)CCNC(=O)[C@H](CC(C)C)NC(=O)[C@H]1O[C@@H]1C(=O)NCCCO` [NCGC00487434-01], the solubility was 22 µg/mL (≈ 59.2 µM). In the case of `CC(C)CCNC(=O)[C@H](CC(C)C)NC(=O)[C@H]1O[C@@H]1C(=O)NCc1ccncc1` [NCGC00488908-01], the solubility is reported as > 60 µg/mL.
